In US6911445B2, “Antidepressant cycloalkylamine derivatives of heterocycle-fused benzodioxans” (Wyeth, priority 2002, dated 2005):
Counter-ions that a name gives are not always drawn.

Assays:
[1] = biological target: T1, human 5HT1A receptors (Homo sapiens, UniProt P08908); assay: Displacement of [3H] 8-OH-DPAT from 5HT1A receptor in stably transfected CHO cells; assay type: binding; conditions: CHO cells with human 5HT1A receptors, read-out: 5HT1A Receptor Affinity Ki
T1 construct: expressed in transfected cells; host or cells: CHO cells
T1 sequence (P08908 1-422): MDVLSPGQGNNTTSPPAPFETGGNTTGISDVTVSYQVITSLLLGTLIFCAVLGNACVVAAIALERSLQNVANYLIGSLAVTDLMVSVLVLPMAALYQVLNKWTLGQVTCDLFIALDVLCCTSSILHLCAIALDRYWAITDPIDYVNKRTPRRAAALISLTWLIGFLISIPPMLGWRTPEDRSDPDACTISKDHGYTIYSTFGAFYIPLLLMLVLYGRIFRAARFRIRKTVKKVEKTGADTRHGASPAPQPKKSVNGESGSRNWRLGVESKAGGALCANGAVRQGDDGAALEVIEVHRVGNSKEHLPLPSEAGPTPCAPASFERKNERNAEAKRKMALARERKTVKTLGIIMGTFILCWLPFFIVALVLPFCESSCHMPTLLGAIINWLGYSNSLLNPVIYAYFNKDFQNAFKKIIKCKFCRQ
Text: High affinity for the serotonin 5HT1A receptor was established by testing the claimed compound's ability to displace [^3H] 8-OH-DPAT (dipropylamino-tetralin) from the 5HT1A serotonin receptor following a modification of the procedure of Hall, et al., J. Neurochem. 44, 1685 (1985), which utilizes CHO cells stably transfected with human 5HT1A receptors.

[2] = biological target: T2, serotonin transporter (Rattus norvegicus, UniProt P31652); assay: Displacement of 3H-paroxetine from male rat frontal cortical membranes (serotonin transporter affinity); assay type: binding; conditions: read-out: 5-HT Transporter Affinity Ki
T2 construct: displace ^3H-paroxetine from male rat frontal cortical membranes; from tissue; host or cells: male rat frontal cortex membranes
T2 sequence (P31652 whole entry): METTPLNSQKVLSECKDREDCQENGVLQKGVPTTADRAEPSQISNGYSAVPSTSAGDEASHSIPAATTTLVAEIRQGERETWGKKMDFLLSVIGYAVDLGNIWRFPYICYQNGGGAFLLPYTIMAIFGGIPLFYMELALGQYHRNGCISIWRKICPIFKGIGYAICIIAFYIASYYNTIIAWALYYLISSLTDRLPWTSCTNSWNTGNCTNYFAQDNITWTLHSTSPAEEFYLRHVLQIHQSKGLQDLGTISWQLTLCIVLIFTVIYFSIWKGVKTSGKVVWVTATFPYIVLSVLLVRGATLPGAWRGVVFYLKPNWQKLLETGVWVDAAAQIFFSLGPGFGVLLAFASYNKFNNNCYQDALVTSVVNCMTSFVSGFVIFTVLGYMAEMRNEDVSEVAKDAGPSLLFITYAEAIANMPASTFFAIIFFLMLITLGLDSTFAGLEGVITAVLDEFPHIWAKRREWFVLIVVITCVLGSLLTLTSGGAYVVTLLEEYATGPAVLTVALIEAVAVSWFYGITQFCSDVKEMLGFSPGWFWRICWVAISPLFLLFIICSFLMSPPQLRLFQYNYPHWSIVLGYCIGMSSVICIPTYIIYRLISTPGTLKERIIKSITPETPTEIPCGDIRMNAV

[3] = biological target: T3, cloned human 5HT1A receptors (Homo sapiens, UniProt P08908); assay: 35S-GTPγS binding assay, membranes containing cloned human 5HT1A receptors; assay type: biochemical; conditions: for IC50: antagonist potency, reversal of the standard agonist 8-OH-DPAT, read-out: 5HT1A Function IC50; for 5HT1A Function (Imax): maximum inhibitory effect, value in parentheses
T3 construct: expressed in transfected cells
T3 sequence (P08908 1-422): T1 sequence (P08908 1-422)
Description: Antagonist activity at 5HT1A receptors was established by using a ^35S-GTPγS binding assay similar to that used by Lazareno and Birdsall (Br. J. Pharmacol. 109:1120, 1993), in which the test compound's ability to affect the binding of ^35S-GTPγS to membranes containing cloned human 5HT1A receptors was determined. Agonists produce an increase in binding whereas antagonists produce no increase but rather reverse the effects of the standard agonist 8-OH-DPAT. The test compound's maximum inhibitory effect is represented as the Imax, while its potency is defined by the IC50.

melting point [°C] | Ki [1] [nM] | Ki [2] [nM] | IC50 [3] [nM] | 5HT1A Function (Imax) [3] [%] | Compound
80 to 82 | 84.4 | 11 | – | – | Cc1nc2ccc3c(c2o1)O[C@@H](CN[C@H]1CC[C@@H](c2c[nH]c4ccc(F)cc42)CC1)CO3 [Example 12]
79 to 82 | 16.4 | 1.46 | 274 | 100 | Cc1nc2ccc3c(c2o1)O[C@@H](CN[C@H]1CC[C@@H](c2c[nH]c4ccc(F)cc24)C1)CO3 (mixture of isomers) [Example 11, N-[(cis)-3-(5-Fluoro-1H-indol-3-yl)cyclopentyl]-N-{[(8S)-2-methyl-7,8-dihydro[1,4]dioxino[2,3-g][1,3]benzoxazol-8-yl]methyl}amine]
79 to 82 | 28.6 | 1.38 | 172 | 85 | Cc1nc2ccc3c(c2o1)O[C@@H](CN[C@H]1CC[C@H](c2c[nH]c4ccc(F)cc24)C1)CO3 (mixture of isomers) [Example 10, N-[(trans)-3-(5-Fluoro-1H-indol-3-yl)cyclopentyl]-N-{[(8S)-2-methyl-7,8-dihydro[1,4]dioxino[2,3-g][1,3]benzoxazol-8-yl]methyl}amine]
200 to 201 | – | – | – | – | Cc1ccc2c3c(ccc2n1)OCC(CNC1CCC(c2cn(C)c4ccc(F)cc24)C1)O3 (single isomer, unassigned) (as salt: fumarate) [Example 5]
